Experimental data as given in patent publication US5597806A, “Antifungal agents” (Merck & Co., Inc., priority 1995, dated 1997).
≈ marks a conversion by molar mass, not a printed value. Like-named read-outs stand apart in the source and are kept apart here.

Experiments:
Experiment in all cases: broth microdilution assay
[1] = test system: Aspergillus fumigatus (MF5668); type: cell-based; conditions: for MIC: complete clearing
Experimental: (§1) In the microbroth dilution assay, the selected microorganisms were grown by streaking a yeast culture on Sabouraud Dextrose agar (SDA) and incubating for 24-48 hr at 35°-37° C. Thereafter, 3-5 characteristic colonies were selected and transferred to CM-YNB+0.1% Dextrose Agar plates (1% Bactopeptone, 0.5% yeast extract, 6.7 g/L yeast nitrogen base with amino acids, 1 μM adenine, 0.1% dextrose, and 1.5% Bacto agar) and incubated overnight at 35°-37° C. From the regrowth, 3 to 5 colonies were selected and suspended in 5 ml of CM-YNBD media (same as above, only without agar) and incubated for 4-6 hr at 35°-37° C. shaking at 225 rpm. The broth cultures were adjusted spectrophotometrically to 86% transmission resulting in a concentration of 1-5×10^6 cfu/ml which was further diluted 1:100 (1:50 for Aspergillus) in CM-YNBD to obtain a concentration of 1-5 ×10^4 cfu/ml to use as inocula.
(§2) The test compounds were prepared as a stock solution of 512 μg/ml in 10% DMSO and 75 μl of said solution delivered to a well in column one of each 96 well, U-bottomed microtiter plate that already contained 75 μl of CM-YNBD media per well. In the first run of the assay, Compound I was then serially diluted two fold from column 1 to column 12 to yield concentrations from 256 μg/ml to 0,125 μg/ml.
as §2, with “Amphotericin B, the control compound, was” for “The test compounds were”, “The compound” for “In the first run of the assay, Compound I”
(§3) The plates containing the diluted compounds were then inoculated with 75 μl/well of the appropriate microorganism resulting in a further 2-fold dilution such that the final concentration of test compounds ranged between 128 and 0.06 μg/ml. The plates were incubated for 48 hours at 35°-37° C. with MIC (minimum inhibitory concentration) determinations carried out after 24 hours of incubation. Growth and sterility controls for each organism and sterility checks for the compounds also were carried out. In three cases, a modified MIC endpoint (MIC2) was used.
(§4) No MFC values are indicated for Aspergillus fumigatus since colony counts are unreliable with filamentous species. Instead, a Minimum Effective Concentration (MEC) is reported for A. fumigatus. The MEC is defined as the lowest concentration of drug which effects a severe morphological change in the cells. The MEC is scored […] by direct observation of the microtiter plate wells after 24 hours and reflects microscopic alterations in cell morphology (Kurtz et al. AAC:38:1480-1489[94]).
(§5) In this run, Compound I was titrated from 64-0.03 μg/ml and Compound II was titrated from 128-0.06 μg/ml.

[2] = test system: Aspergillus fumigatus (MF4839); type: cell-based; conditions: for MIC: complete clearing
Experimental: as §1, §2
as §2, with “Amphotericin B, the control compound, was” for “The test compounds were”, “The compound” for “In the first run of the assay, Compound I”
as §3, §4, §5

[3] = test system: Candida pseudotroplicalis (MY2099); type: cell-based, Candida pseudotropicalis; conditions: for MIC: complete clearing
Experimental: as §1, §2
as §2, with “Amphotericin B, the control compound, was” for “The test compounds were”, “The compound” for “In the first run of the assay, Compound I”
as §3
After recording MICs at 24 hours, samples are withdrawn to determine the MFC. The microtiter plates were shaken gently to resuspend the cells and […] sample was transferred from each well of the 96 well plate to the surface of a single reservoir inoculum plate containing 15 ml of SDA. The inoculated SDA and corresponding microtiter plates were incubated for 24 hours at 35°-37° C. For Cryptococcus neoformans, the MFC plates were inoculated after reading the 48 hour MICs and incubated for 48 hours before reading the MFC. […]

[4] = test system: Candida parapsilosis (MY1010); type: cell-based; conditions: Lodderomyces parapsilosis
Experimental: as §1, §2
as §2, with “Amphotericin B, the control compound, was” for “The test compounds were”, “The compound” for “In the first run of the assay, Compound I”
as §3
(§6) After recording MICs at 24 hours, samples are withdrawn to determine the MFC. The microtiter plates were shaken gently to resuspend the cells and […] sample was transferred from each well of the 96 well plate to the surface of a single reservoir inoculum plate containing 15 ml of SDA. The inoculated SDA and corresponding microtiter plates were incubated for 24 hours at 35°-37° C. For Cryptococcus neoformans, the MFC plates were inoculated after reading the 48 hour MICs and incubated for 48 hours before reading the MFC. The MFC is the lowest concentration of compound at which either no growth or growth of ≤3 colonies occurs.
as §5

Candida albicans (CA2) = type: cell-based; conditions: comparative run, I 64-0.03, II 128-0.06 μg/ml, complete clearing
Experimental: as §1, §2
as §2, with “Amphotericin B, the control compound, was” for “The test compounds were”, “The compound” for “In the first run of the assay, Compound I”
as §3, §6, §5

[5] = test system: Candida tropicalis (MY1012); type: cell-based; conditions: for MIC: complete clearing
Experimental: as §1, §2
as §2, with “Amphotericin B, the control compound, was” for “The test compounds were”, “The compound” for “In the first run of the assay, Compound I”
as §3, §6, §5

[6] = test system: Candida glabrata (MY1381); type: cell-based; conditions: Nakaseomyces glabratus; for MIC: complete clearing
Experimental: as §1, §2
as §2, with “Amphotericin B, the control compound, was” for “The test compounds were”, “The compound” for “In the first run of the assay, Compound I”
as §3, §6, §5

[7] = test system: Candida tropicalis (MY1124); type: cell-based
Experimental: as §1, §2
as §2, with “Amphotericin B, the control compound, was” for “The test compounds were”, “The compound” for “In the first run of the assay, Compound I”
as §3, §6, §5

[8] = test system: Cryptococcus neoformans (MY2062); type: cell-based; conditions: complete clearing
Experimental: as §1, §2
as §2, with “Amphotericin B, the control compound, was” for “The test compounds were”, “The compound” for “In the first run of the assay, Compound I”
as §3, §6, §5

[9] = test system: Saccharomyces cerevisiae (MY2141); type: cell-based; conditions: for MIC: complete clearing
Experimental: as §1, §2
as §2, with “Amphotericin B, the control compound, was” for “The test compounds were”, “The compound” for “In the first run of the assay, Compound I”
as §3, §6, §5

[10] = test system: Saccharomyces cerevisiae (MY2140); type: cell-based; conditions: for MIC: complete clearing
Experimental: as §1, §2
as §2, with “Amphotericin B, the control compound, was” for “The test compounds were”, “The compound” for “In the first run of the assay, Compound I”
as §3, §6, §5

[11] = test system: Candida guillermondii (MY1019); type: cell-based; conditions: for MIC: complete clearing
Experimental: as §1, §2
as §2, with “Amphotericin B, the control compound, was” for “The test compounds were”, “The compound” for “In the first run of the assay, Compound I”
as §3, §6, §5

[12] = test system: Candida albicans (MY1055); type: cell-based
Experimental: as §1, §2
as §2, with “Amphotericin B, the control compound, was” for “The test compounds were”, “The compound” for “In the first run of the assay, Compound I”
as §3, §6, §5

[13] = test system: Candida albicans (CLY539); type: cell-based; conditions: for MIC: * = MIC2, prominent decrease in turbidity
Experimental: as §1, §2
as §2, with “Amphotericin B, the control compound, was” for “The test compounds were”, “The compound” for “In the first run of the assay, Compound I”
as §3, §6, §5

[14] = comparative run, I 64-0.03, II 128-0.06 μg/ml
[15] = comparative run, II 128-0.06 μg/ml, * = MIC2, prominent decrease in turbidity, read-out: MIC2
[16] = first run, 128-0.06 μg/ml, 24 h
[17] = first run, lowest concentration effecting severe morphological change, 24 h, read-out: MEC
[18] = first run, 128-0.06 μg/ml, no growth or ≤3 colonies
[19] = comparative run, I 64-0.03 μg/ml, complete clearing, read-out: MIC
[20] = first run, 128-0.06 μg/ml, 24 h, * = MIC2, prominent decrease in turbidity, read-out: MIC2

`C=C(CCC(C)C1CCC2(C(=O)O)C3=C(CCC12C)C1(C)CCC(OC2OC(CO)C(O)C(O)C2O)C(=C)C1CC3)C(C)C` (stereo not shown) [Compound II] gave an MIC [1, 14] of over 128 µg/mL, an MIC [2, 14] of over 128 µg/mL and an MIC [3, 14] of under 0.06 µg/mL. The MIC [4, 15] was 2 µg/mL (≈ 3.24 µM), the MIC (Candida albicans (CA2)) was over 128 µg/mL and the MIC [5, 14] was 8 µg/mL (≈ 13 µM). For the same compound, the MIC [6, 14] was 0.5 µg/mL (≈ 0.811 µM), the MIC ([7]; comparative run, II 128-0.06 μg/ml, complete clearing, read-out: MIC) was 0.5 µg/mL (≈ 0.811 µM) and the MIC [8, 14] was over 128 µg/mL. It also gave an MIC [9, 14] of under 0.06 µg/mL, an MIC [10, 14] of 1 µg/mL (≈ 1.62 µM) and an MIC [11, 14] of over 128 µg/mL. For the same compound, the MIC [12, 15] was 1 µg/mL (≈ 1.62 µM) and the MIC [13, 14] was over 128 µg/mL.

Work on `C=C(CCC(C)C1CC(O)C2(C(=O)O)C3=C(CCC12C)C1(C)CCC(OC2OC(CO)C(OC)C(O)C2O)C(=C)C1CC3)C(C)C` (stereo not shown) [Compound I] yielded an MIC [1, 14] of over 64 µg/mL, an MIC [1, 16] of over 128 µg/mL and a minimal effective concentration [1, 17] of under 0.06 µg/mL. It also gave an MIC [2, 14] of over 64 µg/mL, an MIC [2, 16] of over 128 µg/mL and a minimal effective concentration [2, 17] of 0.25 µg/mL. The MIC [3, 14] was under 0.03 µg/mL, the MIC [3, 16] was under 0.06 µg/mL and the MFC [3, 18] was under 0.06 µg/mL. For the same compound, the MIC [4, 19] was under 0.03 µg/mL, the MIC ([4]; first run, 128-0.06 μg/ml, 24 h, complete clearing, read-out: MIC) was under 0.06 µg/mL and the MFC [4, 18] was under 0.06 µg/mL. It also gave an MIC (Candida albicans (CA2)) of over 64 µg/mL, an MIC [5, 14] of 8 µg/mL (≈ 12.4 µM) and an MIC [5, 16] of 8 µg/mL (≈ 12.4 µM). The MFC [5, 18] was 8 µg/mL (≈ 12.4 µM), the MIC [6, 16] was under 0.06 µg/mL and the MFC [6, 18] was under 0.06 µg/mL. For the same compound, the MIC ([7]; comparative run, I 64-0.03 μg/ml, * = MIC2, prominent decrease in turbidity, read-out: MIC2) was under 0.03 µg/mL, the MIC [7, 20] was 0.25 µg/mL (≈ 0.386 µM) and the MFC [7, 18] was 0.125 µg/mL (≈ 0.193 µM). It also gave an MIC [8, 14] of over 64 µg/mL, an MIC ([8]; first run, 128-0.06 μg/ml) of 32 µg/mL (≈ 49.5 µM) and an MIC [9, 14] of under 0.03 µg/mL. It also gave an MIC [9, 16] of under 0.06 µg/mL, an MFC [9, 18] of under 0.06 µg/mL and an MIC [10, 14] of 4 µg/mL (≈ 6.18 µM). It also gave an MIC [10, 16] of 8 µg/mL (≈ 12.4 µM), an MFC [10, 18] of 4 µg/mL (≈ 6.18 µM) and an MIC [11, 14] of over 64 µg/mL. For the same compound, the MIC [11, 16] was over 128 µg/mL, the MFC [11, 18] was over 128 µg/mL and the MIC [12, 19] was under 0.03 µg/mL. The MIC [12, 20] was 2 µg/mL (≈ 3.09 µM), the MFC [12, 18] was under 0.06 µg/mL and the MIC [13, 14] was under 0.03 µg/mL. The MIC [13, 16] was 0.5 µg/mL (≈ 0.773 µM) and the MFC [13, 18] was over 128 µg/mL.
